Values quoted from earlier work in patent US5831002A, “Antitumor peptides” (BASF Aktiengesellschaft, priority 1995, dated 1998).

Conditions: background, literature; cited from earlier work

| Substance | cell growth inhibitory activity |
| --- | --- |
| Dolastatin-10 | potent cell growth inhibitory activity |
| Dolastatin-15 | potent cell growth inhibitory activity |
